# Source: article PMC8901636, “Preclinical studies of Flonoltinib Maleate, a novel JAK2/FLT3 inhibitor, in treatment of JAK2^V617F-induced myeloproliferative neoplasms” (Blood Cancer Journal, 2022)
# Read-outs that look alike come from different tables or passages of the source.
# Columns and labels:
# [1] = PK and tissue distribution after repeated oral administration in Ba/F3-EPOR-JAK2^V617F tumor-bearing mice; type: in vivo; conditions: for Kp: spleen and plasma, po
# CD34^+ cells = assay: CD34+ cells in peripheral blood of normal mice; type: in vivo; conditions: normal BALB/c mice; 30 mg/kg p.o. twice a day; Day 0-21
# Procedure: (§1) To further understand the effect of FM on normal mice and normal human CD34^+ cells, we conducted a further analysis on CD34^+ cells. For normal mice, we measured the proportion of CD34^+ in the peripheral blood of BALB/c mice on Day 0, and then mice were treated with FM 30 mg/kg p.o. twice a day. […] To investigate the effect of FM on normal human CD34^+ cells, we collected mononuclear cells of PB acquired from healthy donors. […] Therefore, in the future phase I clinical trials, we should examine the myelosuppressive effects of FM in patients with MPN.
# (§2) (A) Normal BALB/c mice were treated with vehicle and FM 30mg/kg p.o. twice a day. FACS analysis of the percentage of CD34^+ cells on Day 0, 7, 14 and 21 (n = 7). (B) Mononuclear cells were isolated from the PB of healthy donors and CD34^+ cells were analyzed after incubated with FM after 48h.
# [2] = system: normal human CD34^+ cells; assay: Normal human CD34+ cells from PB mononuclear cells of healthy donors; type: cell-based; conditions: 48 h
# Procedure: as §1, §2
# FLT3 = FLT3 (Homo sapiens, UniProt P36888); assay: In vitro kinase assay
# Sequence of FLT3 (P36888 27-993): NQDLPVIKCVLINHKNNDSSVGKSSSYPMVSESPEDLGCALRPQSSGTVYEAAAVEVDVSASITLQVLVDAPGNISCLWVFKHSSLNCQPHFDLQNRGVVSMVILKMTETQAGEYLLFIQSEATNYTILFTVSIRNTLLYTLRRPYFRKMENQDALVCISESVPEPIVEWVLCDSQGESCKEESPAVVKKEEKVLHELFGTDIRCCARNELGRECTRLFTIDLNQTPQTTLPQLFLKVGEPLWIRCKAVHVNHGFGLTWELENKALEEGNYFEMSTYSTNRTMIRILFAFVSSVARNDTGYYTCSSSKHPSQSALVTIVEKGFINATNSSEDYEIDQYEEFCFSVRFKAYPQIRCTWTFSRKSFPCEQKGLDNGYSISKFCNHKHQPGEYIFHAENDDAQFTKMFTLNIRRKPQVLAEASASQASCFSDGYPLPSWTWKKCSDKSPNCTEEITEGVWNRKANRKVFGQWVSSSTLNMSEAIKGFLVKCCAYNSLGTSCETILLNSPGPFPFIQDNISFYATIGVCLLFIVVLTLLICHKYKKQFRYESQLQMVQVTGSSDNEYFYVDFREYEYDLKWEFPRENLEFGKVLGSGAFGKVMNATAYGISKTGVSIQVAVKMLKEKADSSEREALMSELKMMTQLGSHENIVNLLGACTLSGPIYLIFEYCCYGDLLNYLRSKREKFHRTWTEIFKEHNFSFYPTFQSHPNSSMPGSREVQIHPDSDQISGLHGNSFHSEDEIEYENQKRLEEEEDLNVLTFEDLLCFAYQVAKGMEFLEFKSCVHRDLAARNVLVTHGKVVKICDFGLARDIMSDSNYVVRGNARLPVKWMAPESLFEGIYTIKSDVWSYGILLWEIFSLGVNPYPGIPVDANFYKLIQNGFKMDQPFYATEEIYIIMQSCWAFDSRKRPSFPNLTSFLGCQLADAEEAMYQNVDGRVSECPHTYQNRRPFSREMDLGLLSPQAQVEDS
# Ba/F3-JAK2^V617F cells = assay: Ba/F3-JAK2^V617F disease model; conditions: for inhibition of the spleen growth: 22 days, figure prints it with a minus sign over Spleen Weight (mg); for median survival: vehicle 25 days
# [3] = BALB/c nude, mouse, muscle, oral, 30 mg/kg, repeated, read-out: FM concentration, Muscle
# [4] = BALB/c nude, mouse, plasma, oral, 30 mg/kg, repeated, read-out: FM concentration, Plasma
# [5] = BALB/c nude, mouse, spleen, oral, 30 mg/kg, repeated, read-out: FM concentration, Spleen
# [6] = BALB/c nude, mouse, stomach, oral, 30 mg/kg, repeated, read-out: FM concentration, Stomach
# [7] = BALB/c nude, mouse, Plasma, repeated oral 30 mg/kg
# [8] = BALB/c nude, mouse, Spleen, repeated oral 30 mg/kg
smiles,measurement,setting,value
"Cc1cnc(Nc2ccc(N3CCC(N(C)CCO)CC3)c(F)c2)nc1-c1cnn(C(C)C)c1 [FM, 2-((1-(2-fluoro-4-((4-(1-isopropyl-1H-pyrazol-4-yl)-5-methylpyrimidin-2-yl)amino)phenyl)piperidin-4-yl)(methyl)amino)ethan-1-ol]",concentration at 4 h,"[1]; BALB/c nude, mouse, lung, oral, 30 mg/kg, repeated, read-out: FM concentration, Lung",3890 ± 1470 ng/g
same,concentration at 8 h,"[1]; BALB/c nude, mouse, lung, oral, 30 mg/kg, repeated, 8 h, read-out: FM concentration, Lung",1450 ± 1430 ng/g
same,concentration at 12 h,"[1]; BALB/c nude, mouse, lung, oral, 30 mg/kg, repeated, 12 h, read-out: FM concentration, Lung",132 ± 76.7 ng/g
same,concentration at 0 h,[1]; [3],18.6 ± 11.7 ng/g
same,concentration at 0.5 h,[1]; [3],415 ± 435 ng/g
same,concentration at 2 h,[1]; [3],275 ± 158 ng/g
same,concentration at 4 h,[1]; [3],181 ± 120 ng/g
same,concentration at 8 h,"[1]; BALB/c nude, mouse, muscle, oral, 30 mg/kg, repeated, 8 h, read-out: FM concentration, Muscle",85 ± 73.1 ng/g
same,concentration at 12 h,"[1]; BALB/c nude, mouse, muscle, oral, 30 mg/kg, repeated, 12 h, read-out: FM concentration, Muscle",13.3 ± 6.38 ng/g
same,concentration at 0 h,[1]; [4],5.6 ± 1.53 ng/mL
same,concentration at 0.25 h,[1]; [4],628 ± 144 ng/mL
same,concentration at 0.5 h,[1]; [4],889 ± 238 ng/mL
same,concentration at 1 h,[1]; [4],1040 ± 375 ng/mL
same,concentration at 2 h,[1]; [4],638 ± 168 ng/mL
same,concentration at 4 h,[1]; [4],292 ± 101 ng/mL
same,concentration at 8 h,"[1]; BALB/c nude, mouse, plasma, oral, 30 mg/kg, repeated, 8 h, read-out: FM concentration, Plasma",106 ± 84.1 ng/mL
same,concentration at 12 h,"[1]; BALB/c nude, mouse, plasma, oral, 30 mg/kg, repeated, 12 h, read-out: FM concentration, Plasma",19.3 ± 12.9 ng/mL
same,concentration at 24 h,"[1]; BALB/c nude, mouse, plasma, oral, 30 mg/kg, repeated, 24 h, read-out: FM concentration, Plasma",5.56 ± 4.97 ng/mL
same,Kp,"[1]; BALB/c nude, mouse, 30 mg/kg, AUC(0–24h) of spleen higher than that of plasma, repeated oral 30 mg/kg",17.9
same,Kp,"[1]; BALB/c nude, mouse, 30 mg/kg, repeated oral 30 mg/kg, read-out: Cmax of spleen higher than that of plasma",14.1
same,concentration at 0 h,[1]; [5],69 ± 44.8 ng/g
same,concentration at 0.25 h,[1]; [5],3700 ± 1440 ng/g
same,concentration at 0.5 h,[1]; [5],12100 ± 1910 ng/g
same,concentration at 1 h,[1]; [5],17100 ± 6420 ng/g
same,concentration at 2 h,[1]; [5],12200 ± 4390 ng/g
same,concentration at 4 h,[1]; [5],6180 ± 1680 ng/g
same,concentration at 8 h,"[1]; BALB/c nude, mouse, spleen, oral, 30 mg/kg, repeated, 8 h after the last administration, read-out: FM concentration, Spleen",2150 ± 1390 ng/g
same,concentration at 12 h,"[1]; BALB/c nude, mouse, spleen, oral, 30 mg/kg, repeated, 12 h after the last administration, read-out: FM concentration, Spleen",391 ± 181 ng/g
same,concentration at 0 h,[1]; [6],71.8 ± 44.3 ng/g
same,concentration at 0.5 h,[1]; [6],33100 ± 22700 ng/g
same,concentration at 2 h,[1]; [6],19300 ± 20700 ng/g
same,concentration at 4 h,[1]; [6],11700 ± 8600 ng/g
same,concentration at 8 h,"[1]; BALB/c nude, mouse, stomach, oral, 30 mg/kg, repeated, 8 h, read-out: FM concentration, Stomach",3500 ± 5190 ng/g
same,concentration at 12 h,"[1]; BALB/c nude, mouse, stomach, oral, 30 mg/kg, repeated, 12 h, read-out: FM concentration, Stomach",2490 ± 2530 ng/g
same,Cmax,[1]; [7],1280 ± 455 ng/mL
same,half-life,[1]; [7],2.85 ± 1.14 h
same,AUC(0-t),"[1]; BALB/c nude, mouse, Plasma, repeated oral 30 mg/kg, read-out: AUC0–24 h",3740 ± 704 ng·h/mL
same,Cmax,[1]; [8],18100 ± 5680 ng/g
same,half-life,[1]; [8],2.37 ± 0.58 h
same,Cl,"[1]; Plasma, repeated oral 30 mg/kg",137 ± 31.8 mL/min/kg
same,Vdss,"[1]; Plasma, repeated oral 30 mg/kg",32.81 ± 11.21 L/kg
same,AUC0–24 h,"[1]; Spleen, repeated oral 30 mg/kg",67200.44 ± 11858.88 ng^.h/mL
same,CD34^+ cells in peripheral blood,CD34^+ cells,significantly inhibited
same,effect on normal human CD34^+ cells,[2],general inhibitory effect
same,IC50,FLT3,15 nM
same,inhibition of the spleen growth,Ba/F3-JAK2^V617F cells; 15 mg/kg bid p.o.,72.56%
same,median survival,Ba/F3-JAK2^V617F cells; 15 mg/kg bid p.o.,30 days
same,inhibition of the spleen growth,Ba/F3-JAK2^V617F cells; 30 mg/kg bid p.o.,97.92%
same,median survival,Ba/F3-JAK2^V617F cells; 30 mg/kg bid p.o.,31 days
same,body weight during treatment,Ba/F3-JAK2^V617F cells; any dose,no obvious body weight decrease
